Laboratory results: US20240075099A1, “COMPOSITIONS, ASSAYS, AND METHODS FOR TARGETING HDM2 AND HDMX TO REVERSE THE INHIBITION OF p53 IN [sequence] CANCERS” (Dana-Farber Cancer Institute, Inc., priority 2016, published 2024)
Entries after “also recorded” stand apart in the source; their conditions may differ.

Assays:
[1] = tested on: MV4; 11 cells; test: Viability of pediatric AML cell line; format: cell-based; details: 11, FIG. 6A
[2] = tested on: MV4; 11 cells; test: Cellular uptake, fluorescence scan of lysates from treated cells; format: cell-based; details: full serum, 4 h, FIG. 6B
Protocol: Cellular Penetrability Assays: To measure the cell penetrability of peptides or crosslinked polypeptides, intact cells are incubated with fluoresceinated crosslinked polypeptides (10 μM) for 4 hrs in serum-free media or in media supplemented with human serum at 37° C., washed twice with media and incubated with trypsin (0.25%) for 10 min at 37° C. The cells are washed again and resuspended in PBS. Cellular fluorescence is analyzed, for example, by using either a FACSCalibur flow cytometer or Cellomics' KineticScan® HCS Reader. Alternative methods include, e.g., high content epifluorescence microscopy, confocal imaging, or fluorescence scan of electrophoresed lysates from FITC-peptide treated cells (see, e.g., LaBelle et al. JCI 2012, 122: 2018-31).

[3] = tested on: Molm-14 leukemia cells; test: CellTiter-Glo viability, leukemia cells; format: cell-based; details: wild-type p53, 10% serum, 48 h, FIG. 11
Protocol: (§1) Importantly, the sensitivity of RS4; 11 and Molm-14 cells is peptide sequence dependent, as the F19A point mutant analog of ALRN-7041, ALRN-7041 F19A, has no effect (FIG. 11). Leukemia cells were treated in 10% serum with a serial dilution of stapled p53 peptides or Nutlin 3a, and then measured by CellTiter-Glo assay.

[4] = tested on: Nomo-1; test: CellTiter-Glo viability, leukemia cells; format: cell-based; details: mutant p53 (C242 frameshift), 10% serum, 48 h, FIG. 11
Protocol: as §1

[5] = tested on: RS4; 11 leukemia cells; test: CellTiter-Glo viability, leukemia cells; format: cell-based; details: wild-type p53, 10% serum, 48 h, FIG. 11
Protocol: as §1

[6] = tested on: Thp-1; test: CellTiter-Glo viability, leukemia cells; format: cell-based; details: mutant p53 (R174 frameshift), 10% serum, 48 h, FIG. 11
Protocol: as §1

[7] = tested on: p53 protein level in RS4; 11 cells; test: p53 protein level by flow cytometry; format: cell-based; details: 3 hours, 10% serum, FIG. 12
Protocol: RS4; 11 cells were plated in 6-well plates (10^6/well) in RMPI containing 10% FBS and treated for 3 hours with ALRN-7041, ALRN-7041 F19A, or vehicle control (0.2% DMSO) in the presence of 10% serum. Cells were then harvested by centrifugation, washed in ice cold PBS, and resuspended in 100 viL PBS containing 1 μL Fixable Viability Stain 450 (BD Biosciences, Franklin Lakes. NJ, USA) and incubated in the dark at room temperature for 15 minutes. The cells were stained for p53 immunofluorescence with Cytofix/Cytoperm and the PE Mouse Anti-p53 Set (BD Biosciences) according to the manufacturer's instructions, using 10 viL PE-G59-12 anti-p53 mouse IgG1 or isotype control antibody per 10 6 cells. Stained and fixed cells were analyzed on an LSR II flow cytometer (BD Biosciences). Cell populations were gated on forward and side scatter to select for single cells and on fluorescence at 450 nm to select for live cells, and PE fluorescence in the gated population was measured at 578 nm.

[8] = tested on: high grade glioma (e.g. GBM) neurospheres bearing mutant p53; test: CellTiter-Glo viability, neurospheres; format: cell-based; details: 72 h, FIG. 13
Protocol: (§4) Cells were plated in 96-well opaque plates (5000 cells/well) in Neurobasal-A/DMEM/F-12 mixture media containing HEPES, MEM sodium pyruvate, MEM non-essential amino acids, GlutaMAX, B27 Supplement, H-EGF, H-FGF, H-PDGF-AA, H-PDGF-BB, and heparin. The following day, the cells were treated with the indicated concentrations of drug or vehicle control (0.2% DMSO). […] Cell viability was measured after 72 h by CellTiter-Glo assay (Promega, Madison, WI, USA), performed according to the manufacturer's instructions, and percent viability calculated based on the untreated controls. Error bars are mean±s.e.m for experiments performed in technical triplicate.

[9] = tested on: Ewing sarcoma cell lines that bear wild-type p53; test: CellTiter-Glo viability, Ewing sarcoma cell line panel; format: cell-based; details: 72 h, FIG. 14
Description: (§2) Error bars are mean±s.e.m. for eight technical replicates.
(§3) A panel of Ewing sarcoma cell lines that bear wild-type p53 (black) vs. mutant or deleted p53 (grey) were exposed to a serial dilution of ALRN-7041 (FIG. 14).

[10] = tested on: Ewing sarcoma cells bearing mutant or deleted p53; test: as above; format: cell-based; details: 72 h, FIG. 14
Description: as §2, §3

[11] = tested on: p53 wild-type TC32 and TC138 Ewing sarcoma cells; test: Western blot of lysates, p53 pathway; format: cell-based; details: FIG. 15
Description: Western blot analysis of electrophoresed lysates from p53 wild-type TC32 and TC138 Ewing sarcoma cells treated with ALRN-7041 at the indicated doses and time points and probed with anti-MDM2, p53, and p21 antibodies.

[12] = tested on: TC32 Ewing sarcoma cells; test: Annexin V/PI staining and FACS analysis; format: cell-based; details: 1 μM, 48 hours post-treatment, FIG. 16
Protocol: TC32 Ewing sarcoma cells were treated with vehicle or 1 μM ALRN-7041 and then subjected to Annexin V/PI staining and FACS analysis at 48 hours post-treatment.

[13] = tested on: TC32 Ewing Sarcoma xenograft; test: Western analysis of xenograft tumor tissue; format: in vivo, mice; details: three intravenous doses, 8 hours after last dose, FIG. 17
Protocol: After TC32 Ewing sarcoma tumor engraftment, mice were treated with three intravenous doses of ALRN-7041 or vehicle and sacrificed 8 hours after the last dose. Each lane of the gel represents an individual mouse tumor, subjected to western analysis using anti-MDM2, p53, and p21 antibodies. Anti-tubulin was used as a loading control.

[14] = tested on: TC32 Ewing Sarcoma xenografts; test: mRNA quantitation in xenograft tumor tissue; format: in vivo, mice; details: normalized to vehicle-treated samples, FIG. 18
Description: ALRN-7041 treatment of mice bearing TC32 Ewing Sarcoma xenografts increases MDM2 and p21 mRNA levels in tumor tissue (FIG. 18). Each bar represents the response of an individual mouse tumor, as assessed by replicates of mRNA quantitation. Values are normalized to vehicle-treated samples. Error bars are mean±SD.

[15] = tested on: TC32 Ewing Sarcoma xenografts; test: Xenograft tumor growth; format: in vivo, mice; details: 30 mg/kg IV q.o.d. vs vehicle, two-way ANOVA p=0.0036, FIG. 19
Protocol: Treatment of mice bearing TC32 Ewing Sarcoma xenografts with 30 mg/kg ALRN-7041 IV q.o.d. […] Error bars are mean±SD. For each animal, treatment was instituted when tumors achieved a tumor volume of 100 mm^3, as determined by caliper measurement. Statistical ignificance was calculated by two-way ANOVA analysis (p=0.0036).

[16] = tested on: DIPG neurospheres bearing wild-type p53
Protocol: as §4

Ac-LTF*EYWAQZ*SAA-NH2 [ALRN-7041] was tested. Which cell viability [1] did it give?
The cell viability was “impairs cell viability in both a dose-responsive and peptide sequence-dependent fashion; also recorded: dose-responsively impairs the viability”.

And the cellular uptake [2]?
The cellular uptake was “readily taken up by cells”.

What about the cell viability [3] of the same compound?
The cell viability was “succumb to ALRN-7041 in dose-responsive fashion”.

And the cell viability [4]?
The cell viability was “unaffected by treatment”.

And the cell viability [5]?
Its cell viability is “succumb to ALRN-7041 in dose-responsive fashion”.

What about the cell viability [6] of the same compound?
The cell viability was “unaffected by treatment”.

And the p53 protein level [7]?
The p53 protein level was “dose-responsively upregulates p53 protein level”.

And the cell viability [8]?
Its cell viability is “no susceptibility”.

And the cell viability [9]?
The cell viability was “dose-responsively impaired the viability”.

What about the cell viability [10] of the same compound?
Its cell viability is “little to no effect”.

And the MDM2 protein induction [11]?
Its MDM2 protein induction is “transient induction”.

What about the p21 protein induction [11] of the same compound?
The p21 protein induction was “robust induction”.

What about the p53 protein induction [11] of the same compound?
The p53 protein induction was “robust induction”.

What about the “Annexin V/PI double positivity (apoptosis)” value [12] of the same compound?
The value was “robust Annexin V/PI double positivity”.

And the “MDM2 protein level in tumor tissue” value [13]?
Its value is “induces”.

What about the “p21 protein level in tumor tissue” value [13] of the same compound?
Its value is “induces”.

What about the “p53 protein level in tumor tissue” value [13] of the same compound?
The value was “induces”.

And the “MDM2 mRNA level in tumor tissue” value [14]?
The value was “increases”.

What about the “p21 mRNA level in tumor tissue” value [14] of the same compound?
Its value is “increases”.

What about the tumor growth [15] of the same compound?
Its tumor growth is “statistically significant suppression of tumor growth”.

And the “cytotoxic effect compared to a selective small molecule inhibitor of HDM2” value [16]?
The value was “markedly enhanced cytotoxic effect”.

What about the cell viability ([16]; 72 h, FIG. 13) of the same compound?
Its cell viability is “succumb to treatment”.

`COc1ccc(C2=N[C@@H](c3ccc(Cl)cc3)[C@@H](c3ccc(Cl)cc3)N2C(=O)N2CCNC(=O)C2)c(OC(C)C)c1` [Nutlin-3a, reference compound] was tested. Which cell viability [1] did it give?
Its cell viability is “little to no effect; also recorded: resistant”.
